Marks after values point to notes of the source that are not given here.
Tests used:
LPS-treated mice [1] = test: Striatal dopamine and metabolites in LPS-treated mice; assay type: in vivo; conditions: for Concentration DA in the striatum: 3 weeks after LPS
Text: Control animals received striatal injection with PBS.
Mice were sacrificed at 3 weeks after LPS treatment.

C57 BL/6 mice [2] = test: Conditioned place preference (psychological dependence) following repeated administration of morphinans or PCP; assay type: in vivo; conditions: 20 or 40 mg/kg i.p. (PCP 2.5 or 5 mg/kg); vs saline
Description: On day 14, the guillotine doors were raised. […] Data were analyzed between 0900 and 1700 hr.

cocaine-treated mice [3] = test: Cocaine-induced hyperlocomotion; assay type: in vivo
Description: FIGS. 34A-34B show effect of morphinans on the cocaine-induced hyperactivity in the mice. Morphinans (15 and 30 mg/kg, i.p.) were administered 30 minutes prior to cocaine (5 and 20 mg/kg, i.p.). Central activity means relatively non-specific locomotor activity in the center of the box. Marginal activity means circling behaviors. All treatments were performed for 7 days.
FIGS. 35A-35D show effect of dimemorfan (DF) on cocaine-induced hyperactivity in the mice. DF (20 mg/kg, i.p.) was administered 30 minutes prior to cocaine (5 and 20 mg/kg, i.p.). All treatments were performed for 7 days.

MA-treated mice [4] = test: Nigral TH-IR in MA-treated mice; conditions: 24 mg/kg i.p.
MA-treated mice [5] = test: Striatal dopamine and metabolites in MA-treated mice; assay type: in vivo; conditions: for Concentration DA in the striatum: 3 days after final MA
Text: Mice were sacrificed at 3 days after final MA injection.

MA-treated mice [6] = test: MA-induced behavioural sensitization; conditions: morphinan 20 mg/kg i.p., last 3 days of wash-out (Ex. 3.12)
Description: Morphinans (20 mg/kg, i.p.) were administered last 3 days of wash-out period.

[7] = test system: NMDA receptor associated PCP sites; conditions: cited from earlier work
MA-treated mice [8] = test: Methamphetamine (MA)-induced hyperthermia; assay type: in vivo; conditions: 24 mg/kg; MA 7.5 mg/kg i.p. x 4 at 2-h intervals
Description: Rectal temperature was recorded at 40 min after each MA treatment. […] Mice were sacrificed at 3 days after final MA injection.
FIGS. 10A-10B show effect of morphinans on the methamphetamine (MA)-induced hyperthermia. Mice received i.p. injections of MA (four injections of 7.5 mg/kg each) at 2-h intervals under the ambient temperature of 22.0±0.5° C. Temperatures were recorded at 40 min after each MA treatment (Arrow=MA injection).

[9] = test system: kainate or maximal electric shock; conditions: kainate (24) or maximal electric shock (27); cited from earlier work
σ1 receptors = σ1 receptors (Homo sapiens, UniProt Q99720); conditions: cited from earlier work
Sequence of σ1 receptors (Q99720 whole entry): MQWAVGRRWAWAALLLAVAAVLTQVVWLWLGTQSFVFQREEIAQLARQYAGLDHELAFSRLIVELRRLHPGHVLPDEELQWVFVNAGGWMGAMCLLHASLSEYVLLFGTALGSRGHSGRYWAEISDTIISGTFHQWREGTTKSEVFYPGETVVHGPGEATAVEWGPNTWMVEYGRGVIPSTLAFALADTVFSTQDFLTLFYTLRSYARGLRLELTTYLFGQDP

cocaine-treated mice [10] = test: Cocaine-induced Fos-related antigen-immunoreactivity (FRA-IR) in the striatum; conditions: cocaine 5 mg/kg; morphinan 20 mg/kg i.p.
MPTP-treated mice [11] = test: Hypokinesia (reduction in locomotor activity) induced by MPTP; assay type: in vivo; conditions: 12 or 24 mg/kg i.p. 30 min before MPTP (20 mg/kg/day x 7), last three days
LPS-treated mice [12] = test: Hypokinesia induced by intrastriatal LPS; conditions: 12 or 24 mg/kg, twice before bilateral intrastriatal LPS
Description: Male mice were anesthetized with chloral hydrate (200 mg/kg, i.p.) and positioned in a small-animal stereotaxic apparatus. […] LPS (2 μg in a volume of 2 μl of PBS) was injected into both sides of the striatum over a period of 2 min, and the injection needle was kept in place for 2 min after the injection. Control animals received striatal injection with PBS.
Ten min after the last treatment with each drug, locomotor activity was measured for 30 min. After measuring the locomotor activity (i.e. 40 min after the last drug injection), the ‘absolute turn angular’ was analyzed in a 3-min monitoring period using an automated video-tracking system (Noldus Information Technology, Wagenin, The Netherlands) to examine locomotor patterns. […] Eight test boxes (40×40×30 cm high) were operated simultaneously by an IBM computer. Animals were studied individually during locomotion in each test box, where they were adapted for 10 min before starting the experiment. […] The distance traveled in cm by the animals in horizontal locomotor activity was analyzed (13, 25, 27). Data were collected and analyzed between 0900 and 1700 hr.

C57 BL/6 mice [13] = test: Locomotor activity and locomotor pattern following repeated administration of morphinans or PCP; assay type: in vivo
MPTP-treated mice [14] = test: Striatal dopamine and metabolites (HPLC-EC) in MPTP-treated mice; conditions: for Concentration DA in the striatum: mean ± S.E.M., 8 animals
Description: Each morphinan was administered 30 min prior to every injection of MPTP for last three days (from day 4th to day 7th). Animals were sacrificed 24 h after the last MPTP treatment.
Brains were rapidly removed and cut into 1 mm coronal sections on ice. The striatum was punched using a fine pasteur pipette (3, 21, 22), and stored at −70° C. DA and its metabolites, 3,4-dihydroxyphenylacetic acid (DOPAC) and homovanilic acid (HVA) were measured by HPLC-eletrochemical detection (3, 21, 22). Briefly, the striatum was homogenized in 0.2 M perchloric acid containing 3,4-dihydroxybenzylamine as an internal standard (10 mg wet weight of tissue per ml). The homogenate was centrifuged and a 20-μl aliquot of the supernatant was injected into the HPLC equipped with an ODS-C18 column. The mobile phase was comprised of 26 ml of acetonitrile, 21 ml of tetrahydrofuran and 960 ml of 0.15 M monochloroacetic acid (pH 3.0) containing 50 mg/l of EDTA and 200 mg/l of sodium octyl sulfate. The amount of DA, DOPAC and HVA were determined by comparison of peak height ratio of tissue sample with standards, and were expressed in nanograms per 100 mg of wet weight of tissue.
Each morphinan was administered 30 min before every injection of MPTP for last three days. Animals were sacrificed at 24 h after the last MPTP injection.

MA-treated mice [15] = test: Hypokinesia induced by MA; assay type: in vivo; conditions: 12 and 24 mg/kg; 3 days after final MA
MA-treated mice [16] = test: MA-induced hyperlocomotion; assay type: in vivo; conditions: morphinan 20 mg/kg i.p. 30 min before MA 1 mg/kg i.p./day x 7
Description: FIGS. 39A-39D show effect of morphinans on the MA-induced hyperactivity in the mice. Each morphinan (20 mg/kg, i.p.) was administered 30 minutes prior to MA (1 mg/kg, i.p.). All treatments were performed for 7 days.

MA-treated mice [17] = test: MA-induced FRA-IR in the striatum; conditions: morphinan 20 mg/kg i.p.; MA 1 mg/kg i.p./day x 7
Description: Therefore, brains were removed and used for immunocytochemical analysis at 18 h after the final cocaine/MA treatment. The coronal sections containing striatum were processed for FRA immunocytochemistry. […] The FRA antibody was used at 1:2,000 as the optimal dilution. The FRA-IR in the striatum was calculated using image analysis systems with a polaroid digital microscopic camera (Optimas version 6.2).

C=CCOc1ccc2c(c1)[C@@]13CCCC[C@H]1[C@@H](C2)N(C)CC3 [AM, 3-allyloxy-17-methylmorphinan]
effect on LPS-induced reductions in striatal DA, DOPAC and HVA (LPS-treated mice [1]; 24 mg/kg pretreatment): did not alter LPS-induced reductions in DA, DOPAC and HVA levels | Concentration DOPAC in the striatum (LPS-treated mice [1]; morphinan 12 (mg/kg) + LPS): 64 ± 8 ng/100 mg wet tissue | Concentration HVA in the striatum (LPS-treated mice [1]; morphinan 12 (mg/kg) + LPS): 75 ± 6 ng/100 mg wet tissue | Concentration DA in the striatum (LPS-treated mice [1]; morphinan 12 (mg/kg) + LPS, mean ± S.E.M., 8 animals): 454 ± 55 ng/100 mg wet tissue | Concentration DOPAC in the striatum (LPS-treated mice [1]; morphinan 24 (mg/kg) + LPS): 66 ± 7 ng/100 mg wet tissue | Concentration HVA in the striatum (LPS-treated mice [1]; morphinan 24 (mg/kg) + LPS): 70 ± 8 ng/100 mg wet tissue | Concentration DA in the striatum (LPS-treated mice [1]; morphinan 24 (mg/kg) + LPS): 452 ± 49 ng/100 mg wet tissue | conditioned place preference (CPP) (C57 BL/6 mice [2]): almost no CPP effects | effect on locomotor activity induced by low dose of cocaine (cocaine-treated mice [3]; cocaine 5 mg/kg i.p. x 7 days, morphinan 15 or 30 mg/kg (DF 20 mg/kg) i.p.): consistently attenuated locomotor activity induced by a low dose of cocaine | effect on hyperactivity induced by high dose of cocaine (cocaine-treated mice [3]; cocaine 20 mg/kg i.p. x 7 days, morphinan 15 or 30 mg/kg i.p. 30 min before): not uniform | effect on MA-induced decrease in nigral TH-positive cells (MA-treated mice [4]): significantly attenuated the decrease in TH-positive cells | effect on MA-induced reductions in striatal DA, DOPAC and HVA (MA-treated mice [5]; 24 mg/kg pretreatment): significantly protected | Concentration DOPAC in the striatum (MA-treated mice [5]; morphinan 12 (mg/kg) + MA): 89 ± 9 ng/100 mg wet tissue | Concentration HVA in the striatum (MA-treated mice [5]; morphinan 12 (mg/kg) + MA): 79 ± 9 ng/100 mg wet tissue | Concentration DA in the striatum (MA-treated mice [5]; morphinan 12 (mg/kg) + MA, mean ± S.E.M., 8 animals): 601 ± 62 ng/100 mg wet tissue | Concentration DOPAC in the striatum (MA-treated mice [5]; morphinan 24 (mg/kg) + MA): 96 ± 10^b ng/100 mg wet tissue | Concentration HVA in the striatum (MA-treated mice [5]; morphinan 24 (mg/kg) + MA): 92 ± 10^b ng/100 mg wet tissue | Concentration DA in the striatum (MA-treated mice [5]; morphinan 24 (mg/kg) + MA): 749 ± 64^b ng/100 mg wet tissue | effect on MA-induced behavioural sensitization (MA-treated mice [6]): significantly reduced | affinity for NMDA receptor associated PCP sites [7]: very low affinities | effect on MA-induced hyperthermia (rectal temperature) (MA-treated mice [8]): attenuated by all morphinans used in this study | anticonvulsant effect [9]: exhibited anticonvulsant effects | affinity for σ1 receptors (σ1 receptors): high affinity ligands | effect on cocaine-induced FRA-IR in the striatum (cocaine-treated mice [10]): apparently attenuated | effect on MPTP-induced reduction in locomotor activity (MPTP-treated mice [11]): neither AM nor DF affected significantly the locomotor hypoactivity | effect on LPS-induced decrease in locomotor activity (LPS-treated mice [12]): neither AM nor DF were effective in attenuating locomotor hypoactivity | locomotor pattern (tracings) (C57 BL/6 mice [13]; 40 mg/kg i.p. (PCP 5 mg/kg), FIG. 3): did not produce significant marginal activity | marginal activity (circling behaviour; absolute turn angular) (C57 BL/6 mice [13]; 20 or 40 mg/kg i.p./day x 7 (PCP 2.5 or 5 mg/kg), 3-min period, vs saline): did not significantly affect marginal activity | locomotor activity (total distance moved) (C57 BL/6 mice [13]; 20 or 40 mg/kg i.p./day x 7 days, 30 min after final treatment, vs saline): appeared to increase locomotor activity slightly | effect on MPTP-induced reductions in striatal DA, DOPAC and HVA (MPTP-treated mice [14]; 24 mg/kg pretreatment): did not alter reductions in DA, DOPAC and HVA | Concentration DOPAC in the striatum (MPTP-treated mice [14]; morphinan 12 (mg/kg) + MPTP): 54 ± 6 ng/100 mg wet tissue | Concentration HVA in the striatum (MPTP-treated mice [14]; morphinan 12 (mg/kg) + MPTP): 69 ± 5 ng/100 mg wet tissue | Concentration DA in the striatum (MPTP-treated mice [14]; morphinan 12 (mg/kg) + MPTP): 468 ± 52 ng/100 mg wet tissue | Concentration DOPAC in the striatum (MPTP-treated mice [14]; morphinan 24 (mg/kg) + MPTP): 66 ± 8 ng/100 mg wet tissue | Concentration HVA in the striatum (MPTP-treated mice [14]; morphinan 24 (mg/kg) + MPTP): 78 ± 7 ng/100 mg wet tissue | Concentration DA in the striatum (MPTP-treated mice [14]; morphinan 24 (mg/kg) + MPTP): 539 ± 64 ng/100 mg wet tissue | effect on MA-induced reduction in locomotor activity (MA-treated mice [15]): significantly prevented MA-induced reduction in locomotor activity | effect on MA-induced hyperlocomotion (MA-treated mice [16]): consistently effective in attenuating hyperlocomotion induced by MA | effect on MA-induced FRA-IR in the striatum (MA-treated mice [17]): apparently attenuated
